{"source": "patent US20220096650A1", "about": "(Glaxosmithkline Intellectual Property Development Limited, priority 2019, published 2022)", "tested_on": "Dendritic cells co-cultured with BCMA ADC treated NCI-H929 cells", "assay": "IL-10 and IL-12p70 in co-culture supernatants (MSD kits)", "type": "cell-based, human", "procedure": "Day 7 iDCs were co-cultured with J6M0 ADC enhanced antigen binding protein treated NCI-H929 cells at 1:1 ratio for 24 hours on 96 well plates. All cells were counted at the initiation of the co-culture and diluted with X-Vivo-15 media to a concentration of 7.5×10^5 cells/mL. 7.5×10^4 cells/well (100 μl) each of iDCS and pre-treated NCI-H929 cells were combined in each well on a 96 well plate. Co-cultured cells were incubated 37° C./5% CO2 for 24 hours. A flow cytometry panel consisting of CD1a, CD11c, CD40, CD80, CD83, CD86, HLA-DR, & CD14 was used to assess fresh, FcR blocked Dendritic Cell differentiation and maturation on the FACS Canto II. […]\nData analysis was performed in Flow Jo v7.6.5 for the flow cytometry panel and used either CD11c+ or HLA-DR+ cell gating to distinguish the dendritic Cells from the tumor cells. […] Data for the secreted IL-10 and IL-12p70 from supernatants in the co-culture assays w analyzed in MSD Discovery Workbench v4.0.12.\nFIGS. 3A and 3B: IL-10 decreased in the supernatants from co-cultured Dendritic cells from two healthy human donors and BCMA ADC treated NCI-H929 Multiple Myeloma cells. IL-10 was measured in (a) untreated (no BCMA ADC) Dendritic cells alone and (b-f) Dendritic cells that were co-cultured with (b) untreated (no BCMA ADC), (c) IgG Control (10 μg/mL), (d) 0.1, (e) 1 and (f) 10 μg/mL BCMA ADC treated (48 hours) NCI-H929 cells. […]", "data": [{"substance": "GSK2857916", "values": [{"measurement": "IL-10 production", "setting": "0.1, 1, 10 μg/mL BCMA ADC", "result": "significant inhibitory effect"}, {"measurement": "IL-12p70", "setting": "all conditions", "result": "below the detection limit"}]}]}
